Assay in all cases: Growth on various substrates (carbon substrate utilization)
One test deals with C. autoethangenum. Type of test: cell-based, Clostridium autoethanogenum. The conditions noted are these: C. autoethangenum; 1 g/L carbon source; N2:CO2 (80%:20%); OD600. The protocol:
(§1) Growth was measured spectrophotometrically at 600 nm (Spectronic 20D; Milton Roy). Carbon substrate utilization was based upon growth after consecutive transfers in media containing 1 g/L of each carbon source. For carbon substrates, screening was performed under an atmosphere of N2: CO2 (80%:20%). A positive growth response was recorded for an OD600 exceeding 0.2 AU. For citrate, additional ^13C-labeled isotope experiments were conducted to determine the nature of products by analysis of final 0.2 μm-filtered product samples by carbon NMR using a Bruker UltraShield Avance 400 MHz nuclear magnetic resonance spectrometer.

The test system of the next test is C. ljungdahlii PETC. The test is classed as cell-based, Clostridium ljungdahlii PETC. The conditions noted are these: 1 g/L carbon source, N2:CO2 (80%:20%), OD600. The protocol: as §1
The next test concerns C. coskatii PS02. The test is classed as cell-based, Clostridium coskatii (PS02). The following applies: for Chemoorganotrophic growth on substrate (in words): Clostridium coskatii (PS02); for Growth on substrate: C. coskatii PS02, 1 g/L carbon source, N2:CO2 (80%:20%), OD600. The protocol:
as §1

The subject of a further test is C. ragsdalei. The test is classed as cell-based, Clostridium ragsdalei. The following applies: for Growth on substrate: 1 g/L carbon source, N2:CO2 (80%:20%), OD600. The protocol: as §1

Take `O=C(O)[C@H](O)[C@@H](O)[C@H](O)[C@H](O)CO` [D-Gluconic Acid]: the Growth on substrate result in the test with C. autoethangenum and with C. ljungdahlii PETC was “+ (A positive growth response was recorded for an OD600 exceeding 0.2 AU)” throughout. Also, the “Chemoorganotrophic growth on substrate (in words)” value (“Chemoorganotrophic growth” for short) in the test with C. coskatii PS02 is “inability”.
As to `O=C(CO)[C@@H](O)[C@H](O)[C@H](O)CO` [Fructose], the Growth on substrate result in the test on C. autoethangenum, in the test on C. ljungdahlii PETC, in the test on C. coskatii PS02 and in the test on C. ragsdalei was “+ (A positive growth response was recorded for an OD600 exceeding 0.2 AU)” throughout. Also, the “Chemoorganotrophic growth” value in the test on C. coskatii PS02 is “growth was observed”.
With `O=C(O)CC(=O)C(=O)O` [Oxaloacetic acid], in the test with C. autoethangenum, the Growth on substrate result was “+ (A positive growth response was recorded for an OD600 exceeding 0.2 AU)”. Moreover, in the test on C. coskatii PS02, the Growth on substrate entry was “+ (A positive growth response was recorded for an OD600 exceeding 0.2 AU)” and the “Chemoorganotrophic growth” value is listed as “growth was observed”. The “Growth on substrate (in words)” value in the test on C. ragsdalei is listed as “inability”.
Turning to `O=C([O-])CCC(=O)[O-].[Na+].[Na+]` [Na-Succinate], the Growth on substrate result in the test with C. autoethangenum, in the test on C. ljungdahlii PETC, in the test on C. coskatii PS02 and with C. ragsdalei was “+ (A positive growth response was recorded for an OD600 exceeding 0.2 AU)” in each case. Besides, the “Chemoorganotrophic growth” value in the test with C. coskatii PS02 is recorded as “growth was observed”.
Take `O=C(O)/C=C\C(=O)O` [Maleic acid]: the Growth on substrate entry in the test on C. autoethangenum, in the test on C. ljungdahlii PETC and in the test with C. coskatii PS02 was “+ (A positive growth response was recorded for an OD600 exceeding 0.2 AU)” throughout. In addition, the “Growth on substrate (in words)” value with C. ragsdalei is “inability”.
On to `C=C(OP(=O)(O)O)C(=O)O` [Phosphoenol-pyruvate], for which the Growth on substrate result in the test on C. autoethangenum, in the test with C. ljungdahlii PETC, with C. coskatii PS02 and in the test with C. ragsdalei was “+ (A positive growth response was recorded for an OD600 exceeding 0.2 AU)” throughout. For the same compound, the “Chemoorganotrophic growth” value with C. coskatii PS02 was “growth was observed”.
For the compound `C[C@H](O)[C@H](O)[C@@H](O)[C@@H](O)C=O` [Rhamnose], the Growth on substrate entry in the test with C. autoethangenum and in the test on C. ljungdahlii PETC was “+ (A positive growth response was recorded for an OD600 exceeding 0.2 AU)” each time. The “Chemoorganotrophic growth” value in the test with C. coskatii PS02 is “inability”.
For `NC(=O)CC[C@H](N)C(=O)O` [Glutamine], the Growth on substrate result in the test on C. autoethangenum, in the test on C. ljungdahlii PETC, in the test on C. coskatii PS02 and in the test on C. ragsdalei was “+ (A positive growth response was recorded for an OD600 exceeding 0.2 AU)” throughout. In addition, the “Chemoorganotrophic growth” value in the test on C. coskatii PS02 was “growth was observed”.
As for `O=C(O)CC(=O)O` [Malonic acid], the Growth on substrate entry in the test on C. autoethangenum, in the test on C. ljungdahlii PETC, with C. coskatii PS02 and in the test on C. ragsdalei was “+ (A positive growth response was recorded for an OD600 exceeding 0.2 AU)” throughout. Besides, in the test on C. coskatii PS02, the “Chemoorganotrophic growth” value is “growth was observed”.
For the compound `C[C@H](N)C(=O)O` [Alanine], the Growth on substrate result in the test on C. autoethangenum, with C. ljungdahlii PETC, with C. coskatii PS02 and with C. ragsdalei was “+ (A positive growth response was recorded for an OD600 exceeding 0.2 AU)” in each case. Further, the “Chemoorganotrophic growth” value in the test on C. coskatii PS02 is on record as “growth was observed”.
For the compound `OC[C@H]1O[C@@](CO)(O[C@H]2O[C@H](CO)[C@@H](O)[C@H](O)[C@H]2O)[C@@H](O)[C@@H]1O` [Sucrose], the Growth on substrate entry in the test on C. autoethangenum, with C. ljungdahlii PETC, in the test on C. coskatii PS02 and in the test with C. ragsdalei was “+ (A positive growth response was recorded for an OD600 exceeding 0.2 AU)” throughout. Moreover, the “Chemoorganotrophic growth” value with C. coskatii PS02 was “growth was observed”.
With `O=C[C@H](O)[C@@H](O)[C@H](O)CO` [Xylose], the Growth on substrate result in the test on C. autoethangenum, in the test on C. ljungdahlii PETC, in the test on C. coskatii PS02 and in the test on C. ragsdalei was “+ (A positive growth response was recorded for an OD600 exceeding 0.2 AU)” throughout. For the same compound, the “Chemoorganotrophic growth” value in the test on C. coskatii PS02 is “growth was observed”.
Take `CC(=O)C(=O)O` [Na-Pyruvate]: the Growth on substrate entry in the test with C. autoethangenum, in the test on C. ljungdahlii PETC, in the test with C. coskatii PS02 and with C. ragsdalei was “+ (A positive growth response was recorded for an OD600 exceeding 0.2 AU)” each time. Besides, the “Chemoorganotrophic growth” value with C. coskatii PS02 is listed as “growth was observed”.
On to `N[C@@H](CCC(=O)O)C(=O)O` [Glutamate], for which the Growth on substrate entry in the test on C. autoethangenum, in the test with C. ljungdahlii PETC, in the test with C. coskatii PS02 and in the test on C. ragsdalei was “+ (A positive growth response was recorded for an OD600 exceeding 0.2 AU)” in each case. Also, in the test with C. coskatii PS02, the “Chemoorganotrophic growth” value is given as “growth was observed”.
As to `N=C(N)NCCC[C@H](N)C(=O)O` [Arginine], the Growth on substrate result in the test on C. autoethangenum, in the test on C. ljungdahlii PETC and in the test with C. coskatii PS02 was “+ (A positive growth response was recorded for an OD600 exceeding 0.2 AU)” each time. Further, the “Chemoorganotrophic growth” value in the test on C. coskatii PS02 is “growth was observed”. Besides, the “Growth on substrate (in words)” value in the test with C. ragsdalei is listed as “inability”.
In the case of `O=C(O)CCC(=O)C(=O)O` [Alpha-ketoglutarate], the Growth on substrate result with C. autoethangenum, with C. ljungdahlii PETC, with C. coskatii PS02 and with C. ragsdalei was “+ (A positive growth response was recorded for an OD600 exceeding 0.2 AU)” throughout. For the same compound, in the test with C. coskatii PS02, the “Chemoorganotrophic growth” value was “growth was observed”.
Consider `N[C@@H](CO)C(=O)O` [Serine], for which the Growth on substrate entry in the test on C. autoethangenum, in the test on C. ljungdahlii PETC, with C. coskatii PS02 and in the test with C. ragsdalei was “+ (A positive growth response was recorded for an OD600 exceeding 0.2 AU)” throughout. Further, the “Chemoorganotrophic growth” value in the test on C. coskatii PS02 was “growth was observed”.
Take `O=C(O)CC(O)C(=O)O` (stereo not drawn) [Malic acid]: the Growth on substrate entry in the test on C. autoethangenum, with C. ljungdahlii PETC, in the test on C. coskatii PS02 and in the test on C. ragsdalei was “+ (A positive growth response was recorded for an OD600 exceeding 0.2 AU)” in each case. For the same compound, the “Chemoorganotrophic growth” value with C. coskatii PS02 is given as “growth was observed”.
